Literature values, collected in patent publication US20120149888A1, “SYNTHESIS OF ARA-2'-O-METHYL-NUCLEOSIDES, CORRESPONDING PHOSPHORAMIDITES AND OLIGONUCLEOTIDES INCORPORATING NOVEL MODIFICATIONS FOR BIOLOGICAL APPLICATION IN THERAPEUCTICS, DIAGNOSTICS, G- TETRAD FORMING OLIGONUCLEOTIDES AND APTAMERS” (priority 2009, published 2012).
pIC50: −log10 of the molar value. Several values for one entry are separate records, joined by “and”; a condition that tells them apart may be missing. Equal values may be shown once. Entries after “also recorded” stand apart in the source; their conditions may differ. Read-outs that look alike come from different tables or passages of the source. Each block holds one molecule with its values, some of them ahead of it.

Columns and labels:
[1] = test system: Ehrlich ascites (ETGR11); conditions: Thioguanine-resistant Ehrlich ascites (ETGR11)
[2] = test system: Ehrlich ascites (EAC-R2); conditions: 6-Methyl thiopurine ribonucleoside-resistant Ehrlich ascites (EAC-R2)
[3] = test system: Sarcoma 180; conditions: in vivo
[4] = test system: L1210 line resistant to MGGH; conditions: in vivo
[5] = test system: AKR/r-AzCdR
[6] = test system: hydroxyurea-, vincristine-, VLB-, TSC-, cortisone- and MGGH-resistant mouse leukemias
[7] = test system: Raji Burkitt's lymphoma; conditions: rat, in vivo
[8] = test system: Raji leukemia; conditions: mouse, in vivo
[9] = test system: human erythroleukemia cell line (K562)
[10] = test system: P815/FU; conditions: in vivo
[11] = test system: AKR/r-AzCR; conditions: mouse, in vivo
[12] = test system: nucleoside carrier-dependent transport; conditions: in vitro
[13] = test system: L1210/C95; conditions: in vivo
[14] = test system: L1210/MP(III)
[15] = test system: equilibrative NBMPR-sensitive nucleoside transporter (es); conditions: growth-inhibitory concentrations
[16] = polarographically, aprotic conditions, in the presence of alpha-lipoic acid
[17] = test system: Ehrlich ascites (EAC-R1); conditions: 6-Mercaptopurine-resistant Ehrlich ascites (EAC-R1)
[18] = test system: Ehrlich ascites (ETGR1); conditions: Thioguanine-resistant Ehrlich ascites (ETGR1)
[19] = test system: L1210/MP; conditions: 6-Mercaptopurine-resistant L1210/MP
[20] = test system: human tumors; conditions: once, 3 times and 5 times weekly for 2 or 4 weeks
[21] = test system: mouse leukemia L1210; conditions: L1210 cells
[22] = test system: human tumors
[23] = test system: human nasopharyngeal KB cells
[24] = test system: 11 human tumor xenografts; conditions: 11 xenografts
[25] = test system: 36 human tumor cell lines
[26] = in vivo
[27] = test system: T-lymphoblasts, B-lymphoblasts
[28] = target: purine nucleoside phosphorylase (PNP) (Homo sapiens, UniProt P00491)
purine nucleoside phosphorylase (PNP), sequence (P00491 whole entry, species assumed): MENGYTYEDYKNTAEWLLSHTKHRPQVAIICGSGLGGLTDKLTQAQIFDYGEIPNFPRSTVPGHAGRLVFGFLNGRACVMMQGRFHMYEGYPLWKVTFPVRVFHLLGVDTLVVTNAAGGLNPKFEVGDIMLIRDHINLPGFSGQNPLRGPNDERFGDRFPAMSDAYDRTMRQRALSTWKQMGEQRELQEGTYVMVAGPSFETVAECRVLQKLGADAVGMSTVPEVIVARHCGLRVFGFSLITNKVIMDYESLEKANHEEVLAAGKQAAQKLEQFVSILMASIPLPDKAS

[29] = test system: L1210/ara-C; conditions: L1210/ara-C (Schabel et al., 1971)
[30] = test system: L1210/CA; conditions: 1β-D-Arabinofuranosylcytosine-resistant L1210/CA
[31] = test system: ara-C-resistant neoplasms; conditions: several other ara-C-resistant neoplasms
[32] = test system: explants of intact rat colonic mucosa
[33] = test system: P815; conditions: 1β-D-Arabinofuranosylcytosine-resistant P815

Structure (SMILES): Sc1ncnc2nc[nH]c12 [6-Mercaptopurine]
Response to chemotherapeutic drugs: Cross-resistant [1]: 6-Mercaptopurine
Response to chemotherapeutic drugs: Cross-resistant [2]: 6-Mercaptopurine^b
Response to chemotherapeutic drugs: Cross-resistant ([2]; listed as 6-MP): partially cross-resistant

Structure (SMILES): Nc1ccn([C@@H]2O[C@H](CO)[C@@H](O)[C@@H]2O)c(=O)n1 [Ara-C, 1-β-D-Arabinofuranosylcytosine]
Response to chemotherapeutic drugs: Same as parent line [3]: Ara-C
response of MGGH-resistant L1210 line to the drug [4]: collaterally sensitive
Response to chemotherapeutic drugs: Cross-resistant ([5]; mouse, in vivo): cross-resistant; also recorded: Ara-C
activity against drug-resistant mouse leukemias [6]: active
mean survival time [7]: 13.2 days
animals that survived (>80 days) [8]: none
mean survival time [8]: 34.2 days
resistance of K562R to ara-C compared with K562S ([9]; 3H-dThd incorporation, MTT dye reduction and clonogenicity): approximately 15 fold
ara-CTP accumulated by K562S versus K562R ([9]; 4-h exposure, 10 microM): seven times more
more ara-C incorporated into DNA by K562S versus K562R ([9]; 4-h exposure, 10 microM): approximately 250%
Response to chemotherapeutic drugs: Same as parent line [10]: retained the same sensitivity; also recorded: Ara-C
Response to chemotherapeutic drugs: Cross-resistant [11]: cross-resistant; also recorded: Ara-C
cellular sensitivity in presence of nitrobenzylmercaptopurine riboside and dipyridamol [12]: reduced strongly
response of L1210/C95 to the drug [13]: sensitive
Response to chemotherapeutic drugs: Same as parent line ([14]; mouse, in vivo): retained sensitivity; also recorded: Ara-C
expression of es [15]: no significant increase

Structure (SMILES): Nc1ncn([C@@H]2O[C@H](CO)[C@@H](O)[C@H]2O)c(=O)n1 [AzCR, 5-azacytidine]
Response to chemotherapeutic drugs: Same as parent line ([5]; 5-Aza-2′-deoxycytidine-resistant AKR-r-AzCdr): sensitive; also recorded: AKR-r-AzCdr AzCR
index of potential carcinogenicity tg alpha [16]: 0.295

Structure (SMILES): CSc1ncnc2c1ncn2[C@@H]1O[C@H](CO)[C@@H](O)[C@H]1O [Compound 6-MeMPR, 6-methyl thio-purine ribonucleoside]
Response to chemotherapeutic drugs: Cross-resistant [17]: partially cross-resistant and 6-MeMPR^b
Response to chemotherapeutic drugs: Cross-resistant [18]: partially cross-resistant and 6-MeMPR^b
Response to chemotherapeutic drugs: Same as parent line ([14]; 6-Mercaptopurine-resistant L1210/MP(III)): retained sensitivity and 6-MeMPR

Structure (SMILES): CN(C)/N=N/c1[nH]cnc1C(N)=O [DIC]
Response to chemotherapeutic drugs: Same as parent line [19]: DIC

pIC50 [21]: 7.80
pIC50 [23]: 7.55
Structure (SMILES): C#C[C@@]1(O)[C@@H](CO)O[C@@H](n2ccc(N)nc2=O)[C@@H]1O [ECyd, 1-(3-C-ethynyl-beta-D-ribo-pentofuranosyl)cytosine]
antitumor activity [20]: strong antitumor activity without serious toxicity
cytotoxicity ([22]; 24 and 72 h exposures): sufficiently potent cytotoxicity
cytotoxicity ([22]; 4 h exposure): fairly potent cytotoxicity
human tumors with potent inhibition [24]: 9 of 11
1050 values [25]: nanomolar to micromolar range

Structure (SMILES): COc1nc(N)nc2c1ncn2[C@@H]1O[C@H](CO)[C@@H](O)[C@@H]1O [Nelarabine]
dose toxicity in the clinical trials [26]: neurotoxicity

Structure (SMILES): Nc1nc2c(ncn2[C@@H]2O[C@H](CO)[C@@H](O)[C@@H]2O)c(=O)[nH]1 [araG, N-9-[β-D-Arabinofuranosyl]guanine]
efficiency in T-lymphoblasts compared to B-lymphoblasts [27]: higher efficiency
degradation by purine nucleoside phosphorylase (PNP) [28]: relatively resistant

Structure (SMILES): NC(=O)NO [hydroxyurea]
Response to chemotherapeutic drugs: Same as parent line [29]: Hydroxyurea
Response to chemotherapeutic drugs: Same as parent line [30]: Hydroxyurea
cross-resistance of ara-C-resistant neoplasms to the drug [31]: no cross-resistance
incorporation of tritiated TdR into DNA [32]: reduced
expression of es [15]: increases
Response to chemotherapeutic drugs: Same as parent line [33]: Hudroxyurea
